Measured values published in patent publication US11220482B2, “Aminopyridinemethanol compounds and their use” (UNIVERSITE AMIENS PICARDIE JULES VERNE, priority 2017, dated 2022).
Read-outs that look alike come from different tables or passages of the source.

Experiments:
Salmonella strains = assay: Bacterial reverse mutation assay (Ames test), overall conclusion; assay type: cell-based, S. typhimurium; details: all tested doses, absence or presence of the metabolizing mixture
Procedure: Five strains of S. typhimurium were used. […] An additional strain has been chosen to detect cross-linking mutagens, hydrazines and oxidative agents: TA102, which have an AT base pair at the primary reversion site. Salmonella tester strains were gifts from Prof. B. N. Ames (Berkeley, Calif., USA). They were stored at −80° C. and regularly checked for genetic markers.
Few crystals of the frozen working strains were taken with a sterile pipette, and seeded in 10 mL of nutrient broth (NB No 2, Oxoid). Strains were grown overnight at 37° C. with shaking in Nutrient Broth No. 2, with ampicillin (25 μg/mL) for TA1535, TA97a, TA98, and TA 100, or ampicillin (25 μg/mL) plus tetracyclin (2 μg/mL) for TA 102. At the end of the incubation period, 0.1 mL of each overnight culture was mixed to 0.1 mL S9 Mix or 0.1 mL phosphate-buffered saline (PBS, pH 7.4) in 5 mL plastic tubes and various volumes of the tested samples were added to the mixtures. Each experiment included triplicate plates of four tested doses. A solvent (DMSO, 10 μL) control was added to determine the spontaneous frequency of revertants (quadruple plates). Five positive controls were also included to ensure the performance of the tester strains and the S9 Mix. […] After hardening, the plates were incubated at 37° C. for 48 hours.
At the end of the incubation period, revertants were counted with a laser colony counter equipped with a bacterial enumeration program (Spiral System Instrument Inc., Bethesda, Md., USA).
The Dunnett test was performed to determine a significant difference between the mean number of induced revertants and the mean number of spontaneous revertants.

CHO-K1 cells [1] = details: Chinese hamster, 24 h
Procedure: All the assays were conducted in duplicate. The CHO-K1 cells, suspended in Mac Coy's 5A medium, were transferred into Labteck wells at a concentration of 100,000 cells/mL, and incubated for 24 hours at 37° C. in CO2 (5%).
The test was performed without metabolic activation: the test substances were added into cell cultures at concentrations previously defined. […] After 24 hours of incubation at 37° C. in CO2 (5%), the culture medium was removed, the cells were rinsed with phosphate buffered saline (PBS), and then returned in culture medium containing […] of cytochalasine B. After a 24-hour incubation period at 37° C., cells were rinsed with phosphate buffered saline (PBS), fixed with methanol and stained with 10% Giemsa for 20 minutes.
(§1) The analysis of results was performed under a microscope at ×1000 magnification. The antiproliferative activity of test substances was estimated by counting the number of binucleated cells relative to the number of mononucleated cells on a total of 500 cells for each dose (250 cells counted per well). The proliferation index (Cytokinesis Blocked Proliferative Index CBPI) was calculated using the following formula:
(§2) The cytostasis index (CI %), i.e. the percentage of cell replication inhibition, was calculated using the following formula: CI %−100−{100×(CBPItest material−1)/(CBPIsolvent control−1)}
(§3) The rates of micronuclei were evaluated for the presence of independent nuclear core entities in 1000 binucleated cells per well, which corresponds to 2000 cells examined by test substance dose. Micronuclei were identified as small nuclei well differentiated from cell nucleus, stained in the same manner and having a diameter less than one third of that of the cell nucleus.
(§4) Micronuclei rates obtained for different doses of test substances were compared to the negative control by a χ2 test. The assay was considered positive if: • A dose-response relationship was obtained between the rate of micronuclei and the doses tested, • At least one of these doses induced a statistically significant increase (P<0.05) in the number of micronucleated cells as compared to the negative control.

[2] = system: Plasmodium falciparum 3D7; assay: Plasmodium falciparum susceptibility assay, first round (SYBR Green I); assay type: cell-based; details: 3D7, first round, 48-h incubation, strain susceptible to CQ, decreased susceptibility to MQ, read-out: IC50 (nM) Plasmodium falciparum 3D7 (converted)
Plasmodium falciparum W2 = assay: Plasmodium falciparum susceptibility assay, first round (SYBR Green I); assay type: cell-based; details: W2, first round, 48-h incubation, strain resistant to CQ, sensitive to MQ, read-out: IC50 (nM) Plasmodium falciparum W2 (converted)
S. typhimurium TA98 = assay: Bacterial reverse mutation assay (Ames test)
CHO-K1 cells [3] = assay: In vitro micronucleus assay, short-term exposure; details: for MNC-M (mean of micronucleated cell rates): Chinese hamster, 3 h
Procedure: All the assays were conducted in duplicate. The CHO-K1 cells, suspended in McCoy's 5A medium, were transferred into Labteck wells at a concentration of 100,000 cells/mL, and incubated for 24 hours at 37° C. in CO2 (5%).
When the test was performed without metabolic activation, the test substances were added into cell cultures at concentrations previously defined.
When the assay was performed in the presence of metabolic activation, S9 mix metabolizing mixture was added to cell cultures at a concentration of 10%. Then the test substances were added to the cell cultures at concentrations previously defined.
After 3 hours of incubation at 37° C. in CO2 (5%), the culture medium was removed, the cells were rinsed with phosphate buffered saline (PBS), and then returned to culture in McCoy's 5A medium containing […] of cytochalasin B. After a 21-hour incubation period at 37° C., cells were rinsed with phosphate buffered saline (PBS), fixed with methanol and stained with 10% Giemsa for 20 minutes.
as §1, §2, §3, §4

[4] = Table 18 second section, "Test without S9 mix", 0.4 μg/plate
[5] = Table 18 second section, "Test without S9 mix", 0.6 μg/plate
[6] = Table 18 second section, "Test without S9 mix", 0.8 μg/plate
[7] = Table 18 second section, "Test without S9 mix", 1 μg/plate

CCCCCNC[C@@H](O)c1cc(-c2ccc(C(F)(F)F)cc2)nc(C(F)(F)F)c1 [Compound 1a]
mutagenic activity in Salmonella strains (revertant rates) (Salmonella strains): No significant increase in revertant rates | BI (binucleated cells) (CHO-K1 cells [1]; 5 μM): 417 | CBPI (Cytokinesis-Blocked Proliferative Index) (CHO-K1 cells [1]; 5 μM): 1.83 | CI % (cytostasis index) (CHO-K1 cells [1]; 5 μM): 8% | MNC1 (micronucleated cell rate) (CHO-K1 cells [1]; 5 μM): 10 ‰ | MNC2 (micronucleated cell rate) (CHO-K1 cells [1]; 5 μM): 9 ‰ | MNC-M (mean of micronucleated cell rates) (CHO-K1 cells [1]; 5 μM): 9.5 ± 0.7 ‰ | MONO (mononucleated cells) (CHO-K1 cells [1]; 5 μM): 83 | BI (binucleated cells) (CHO-K1 cells [1]; 10 μM): 323 | CBPI (Cytokinesis-Blocked Proliferative Index) (CHO-K1 cells [1]; 10 μM): 1.64 | CI % (cytostasis index) (CHO-K1 cells [1]; 10 μM): 29% | MNC1 (micronucleated cell rate) (CHO-K1 cells [1]; 10 μM): 9 ‰ | MNC2 (micronucleated cell rate) (CHO-K1 cells [1]; 10 μM): 11 ‰ | MNC-M (mean of micronucleated cell rates) (CHO-K1 cells [1]; 10 μM): 10 ± 1.4 ‰ | MONO (mononucleated cells) (CHO-K1 cells [1]; 10 μM): 177 | BI (binucleated cells) (CHO-K1 cells [1]; 50 μM): 226 | CBPI (Cytokinesis-Blocked Proliferative Index) (CHO-K1 cells [1]; 50 μM): 1.46 | CI % (cytostasis index) (CHO-K1 cells [1]; 50 μM): 52% | MNC1 (micronucleated cell rate) (CHO-K1 cells [1]; 50 μM): 10 ‰ | MNC2 (micronucleated cell rate) (CHO-K1 cells [1]; 50 μM): 12 ‰ | MNC-M (mean of micronucleated cell rates) (CHO-K1 cells [1]; 50 μM): 11 ± 1.4 ‰ | MONO (mononucleated cells) (CHO-K1 cells [1]; 50 μM): 274 | IC50 [2]: 52.4 ± 1.7 nM | Number of revertants by plate (Means ± SD), TA100 (S. typhimurium TA100; [4]): 185 ± 8 | Number of revertants by plate (Means ± SD), TA100 (S. typhimurium TA100; [5]): 183 ± 7^NS | Number of revertants by plate (Means ± SD), TA100 (S. typhimurium TA100; [6]): 172 ± 6^NS | Number of revertants by plate (Means ± SD), TA100 (S. typhimurium TA100; [7]): 177 ± 4^NS | Number of revertants by plate (Means ± SD), TA100 (S. typhimurium TA100; without S9 mix, 0.4 μg/plate): 189 ± 8 | Number of revertants by plate (Means ± SD), TA100 (S. typhimurium TA100; without S9 mix, 0.6 μg/plate): 192 ± 9^NS | Number of revertants by plate (Means ± SD), TA100 (S. typhimurium TA100; without S9 mix, 0.8 μg/plate): 215 ± 13^NS | Number of revertants by plate (Means ± SD), TA100 (S. typhimurium TA100; without S9 mix, 1 μg/plate): 196 ± 14^NS | Number of revertants by plate (Means ± SD), TA1535 (S. typhimurium TA1535; [4]): 29 ± 8^NS | Number of revertants by plate (Means ± SD), TA1535 (S. typhimurium TA1535; [5]): 29 ± 9^NS | Number of revertants by plate (Means ± SD), TA1535 (S. typhimurium TA1535; [6]): 32 ± 8^NS | Number of revertants by plate (Means ± SD), TA1535 (S. typhimurium TA1535; [7]): 27 ± 4^NS | Number of revertants by plate (Means ± SD), TA1535 (S. typhimurium TA1535; without S9 mix, 0.4 μg/plate): 25 ± 6^NS | Number of revertants by plate (Means ± SD), TA1535 (S. typhimurium TA1535; without S9 mix, 0.6 μg/plate): 30 ± 5^NS | Number of revertants by plate (Means ± SD), TA1535 (S. typhimurium TA1535; without S9 mix, 0.8 μg/plate): 31 ± 4^NS | Number of revertants by plate (Means ± SD), TA1535 (S. typhimurium TA1535; without S9 mix, 1 μg/plate): 26 ± 6^NS | IC50 (Plasmodium falciparum W2): 8.6 ± 1 nM | Number of revertants by plate (Means ± SD), TA98 (S. typhimurium TA98; [4]): 28 ± 3^NS | Number of revertants by plate (Means ± SD), TA98 (S. typhimurium TA98; [5]): 25 ± 5^NS | Number of revertants by plate (Means ± SD), TA98 (S. typhimurium TA98; [6]): 31 ± 6^NS | Number of revertants by plate (Means ± SD), TA98 (S. typhimurium TA98; [7]): 25 ± 3^NS | Number of revertants by plate (Means ± SD), TA98 (S. typhimurium TA98; without S9 mix, 0.4 μg/plate): 30 ± 4^NS | Number of revertants by plate (Means ± SD), TA98 (S. typhimurium TA98; without S9 mix, 0.6 μg/plate): 28 ± 8^NS | Number of revertants by plate (Means ± SD), TA98 (S. typhimurium TA98; without S9 mix, 0.8 μg/plate): 31 ± 6^NS | Number of revertants by plate (Means ± SD), TA98 (S. typhimurium TA98; without S9 mix, 1 μg/plate): 24 ± 5^NS | Number of revertants by plate (Means ± SD), TA102 (S. typhimurium TA102; [4]): 387 ± 8^NS | Number of revertants by plate (Means ± SD), TA102 (S. typhimurium TA102; [5]): 395 ± 9^NS | Number of revertants by plate (Means ± SD), TA102 (S. typhimurium TA102; [6]): 379 ± 8^NS | Number of revertants by plate (Means ± SD), TA102 (S. typhimurium TA102; [7]): 378 ± 5^NS | Number of revertants by plate (Means ± SD), TA102 (S. typhimurium TA102; without S9 mix, 0.4 μg/plate): 319 ± 12^NS | Number of revertants by plate (Means ± SD), TA102 (S. typhimurium TA102; without S9 mix, 0.6 μg/plate): 308 ± 10^NS | Number of revertants by plate (Means ± SD), TA102 (S. typhimurium TA102; without S9 mix, 0.8 μg/plate): 325 ± 13^NS | Number of revertants by plate (Means ± SD), TA102 (S. typhimurium TA102; without S9 mix, 1 μg/plate): 318 ± 10^NS | in vitro micronucleus assay result (clastogenic and/or aneugenic activities) (CHO-K1 cells [3]): negative results | MNC-M (mean of micronucleated cell rates) (CHO-K1 cells [3]; 10 μM): 9.5 ± 0.7 ‰ | MNC-M (mean of micronucleated cell rates) (CHO-K1 cells [3]; 50 μM): 10 ± 1.4 ‰ | MNC-M (mean of micronucleated cell rates) (CHO-K1 cells [3]; 100 μM): 11 ± 1.4 ‰ | Number of revertants by plate (Means ± SD), TA97a (S. typhimurium TA97a; [4]): 128 ± 8^NS | Number of revertants by plate (Means ± SD), TA97a (S. typhimurium TA97a; [5]): 133 ± 4^NS | Number of revertants by plate (Means ± SD), TA97a (S. typhimurium TA97a; [6]): 147 ± 10^NS | Number of revertants by plate (Means ± SD), TA97a (S. typhimurium TA97a; [7]): 151 ± 6^NS | Number of revertants by plate (Means ± SD), TA97a (S. typhimurium TA97a; without S9 mix, 0.4 μg/plate): 161 ± 8^NS | Number of revertants by plate (Means ± SD), TA97a (S. typhimurium TA97a; without S9 mix, 0.6 μg/plate): 155 ± 6^NS | Number of revertants by plate (Means ± SD), TA97a (S. typhimurium TA97a; without S9 mix, 0.8 μg/plate): 159 ± 8^NS | Number of revertants by plate (Means ± SD), TA97a (S. typhimurium TA97a; without S9 mix, 1 μg/plate): 154 ± 9^NS
